# Experimental data reported in PubChem BioAssay AID330 (DTP/NCI, 2004).
# Values joined by “and” are separate entries in the source; they are usually repeats but may differ in a detail not shown here. Identical values can stand only once. Toxic doses and inconclusive results are not listed.
# Test system: P388 leukemia ip, CD2F1 mice, survival T/C
# Assay: NCI In Vivo Anticancer Drug Screen. Data for tumor model P388 Leukemia (intraperitoneal) in CD2F1 (CDF1) mice
# Details: endpoint: median survival time, higher = longer survival
# How it was run: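 Mice carrying the transplanted tumor received test compound or vehicle. Survival was recorded in each group, and the value is the treated-group measurement divided by that of the vehicle-treated control group.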
# [1] = dose: 50.0 mg/kg/injection, schedule: Q01DX009 (ip), vehicle: saline with Tween-80
# [2] = dose: 100.0 mg/kg/injection, schedule: Q01DX009 (ip), vehicle: saline with Tween-80
# [3] = dose: 200.0 mg/kg/injection, schedule: Q01DX009 (ip), vehicle: saline with Tween-80
# [4] = dose: 50.0 mg/kg/injection, schedule: Q01DX009 (ip), vehicle: Klucel (hydroxypropylcellulose) (HPC)
# [5] = dose: 100.0 mg/kg/injection, schedule: Q01DX009 (ip), vehicle: Klucel (hydroxypropylcellulose) (HPC)
# [6] = dose: 60.0 mg/kg/injection, schedule: Q01DX005 (ip), vehicle: saline with Tween-80
# [7] = dose: 120.0 mg/kg/injection, schedule: Q01DX005 (ip), vehicle: saline with Tween-80
# [8] = dose: 240.0 mg/kg/injection, schedule: Q01DX005 (ip), vehicle: saline with Tween-80
# [9] = dose: 200.0 mg/kg/injection, schedule: Q01DX009 (ip), vehicle: Klucel (hydroxypropylcellulose) (HPC)
# [10] = dose: 50.0 mg/kg/injection, schedule: Q01DX009 (ip), vehicle: saline
# [11] = dose: 100.0 mg/kg/injection, schedule: Q01DX009 (ip), vehicle: saline
# [12] = dose: 50.0 mg/kg/injection, schedule: Q01DX005 (ip), vehicle: Klucel (hydroxypropylcellulose) (HPC)
# [13] = dose: 100.0 mg/kg/injection, schedule: Q01DX005 (ip), vehicle: Klucel (hydroxypropylcellulose) (HPC)
# [14] = dose: 200.0 mg/kg/injection, schedule: Q01DX005 (ip), vehicle: Klucel (hydroxypropylcellulose) (HPC)
smiles,measurement,setting,value
c1ccc2c(NCCCCCNc3c4ccccc4nc4ccccc34)c3ccccc3nc2c1,T/C,"dose: 0.63 mg/kg/injection, schedule: Q01DX009 (ip), vehicle: other",103 % of control
same,T/C,"dose: 1.25 mg/kg/injection, schedule: Q01DX009 (ip), vehicle: other",108 % of control
same,T/C,"dose: 2.5 mg/kg/injection, schedule: Q01DX009 (ip), vehicle: other",100 % of control
same,T/C,"dose: 3.75 mg/kg/injection, schedule: Q01DX009 (ip), vehicle: other",112 % of control
same,T/C,"dose: 5.0 mg/kg/injection, schedule: Q01DX009 (ip), vehicle: other",117 % of control
same,T/C,"dose: 10.0 mg/kg/injection, schedule: Q01DX009 (ip), vehicle: other",122 % of control
CCN(CC)CCN1N=C(c2ccccc2O)OCC1=O,T/C,[1],108 % of control
same,T/C,[2],103 % of control
same,T/C,[3],98 % of control
CCCCCCC(/C=C/c1ccc(Cl)cc1)=N\O,T/C,"dose: 25.0 mg/kg/injection, schedule: Q01DX009 (ip), vehicle: Klucel (hydroxypropylcellulose) (HPC)",106 % of control
same,T/C,[4],104 % of control
same,T/C,[5],100 % of control and 108 % of control
CCCCCCCCCCCCOc1ccc(Br)cc1C(=O)O,T/C,[1],100 % of control
same,T/C,[2],112 % of control
same,T/C,[3],105 % of control
S=C(SSC(=S)N(Cc1ccccc1)Cc1ccccc1)N(Cc1ccccc1)Cc1ccccc1,T/C,[6],96 % of control
same,T/C,[7],103 % of control
same,T/C,[8],96 % of control
O=C(NC(=S)c1cccc2ccccc12)Nc1ccc(Cl)c(Cl)c1,T/C,"dose: 12.5 mg/kg/injection, schedule: Q01DX009 (ip), vehicle: saline with Tween-80",89 % of control
same,T/C,"dose: 25.0 mg/kg/injection, schedule: Q01DX009 (ip), vehicle: saline with Tween-80",87 % of control
same,T/C,[1],103 % of control
C[N+](C)(C)/C=C/c1ccc([N+](=O)[O-])o1,T/C,"dose: 50.0 mg/kg/injection, schedule: Q01DX009 (ip), vehicle: suspension in saline",100 % of control
same,T/C,"dose: 100.0 mg/kg/injection, schedule: Q01DX009 (ip), vehicle: suspension in saline",96 % of control
Cc1cc(C2(c3cc(C)c(O)c(C)c3)CC3CCC2C3)cc(C)c1O (configuration not stated),T/C,[4],88 % of control
same,T/C,[5],97 % of control
same,T/C,[9],93 % of control
CC1(C)CC(=O)C(CC2=C(N)CC(C)(C)CC2=O)=C(N)C1,T/C,"dose: 25.0 mg/kg/injection, schedule: Q04DX003 (ip), vehicle: Klucel (hydroxypropylcellulose) (HPC)",95 % of control
same,T/C,"dose: 50.0 mg/kg/injection, schedule: Q04DX003 (ip), vehicle: Klucel (hydroxypropylcellulose) (HPC)",101 % of control
same,T/C,"dose: 100.0 mg/kg/injection, schedule: Q04DX003 (ip), vehicle: Klucel (hydroxypropylcellulose) (HPC)",94 % of control
same,T/C,"dose: 200.0 mg/kg/injection, schedule: Q04DX003 (ip), vehicle: Klucel (hydroxypropylcellulose) (HPC)",95 % of control
C=C1C(=O)OC(C)(C)C1c1ccc(Cl)c(Cl)c1 (configuration not stated),T/C,[4],93 % of control
same,T/C,[5],92 % of control
same,T/C,[9],97 % of control
CNC1=CC(=S)NC(C)(C)C1,T/C,[10],100 % of control
same,T/C,[11],92 % of control
same,T/C,"dose: 200.0 mg/kg/injection, schedule: Q01DX009 (ip), vehicle: saline",92 % of control
Nc1cc2cc([N+](=O)[O-])ccc2oc1=O,T/C,"dose: 50.0 mg/kg/injection, schedule: Q01DX005 (ip), vehicle: Klucel + Tween-80",96 % of control
same,T/C,"dose: 100.0 mg/kg/injection, schedule: Q01DX005 (ip), vehicle: Klucel + Tween-80",90 % of control
same,T/C,"dose: 200.0 mg/kg/injection, schedule: Q01DX005 (ip), vehicle: Klucel + Tween-80",87 % of control
COC(=O)c1nn(Cc2ccccc2)cc1C=O,T/C,[6],99 % of control
same,T/C,[7],92 % of control
same,T/C,[8],92 % of control
Cc1ccc(NC(=O)Nc2sc(=S)c3c(c2C#N)CCCC3)c(C)c1,T/C,[1],87 % of control
same,T/C,[2],94 % of control
same,T/C,[3],89 % of control
CC[C@@H]1C[C@@H]2CN3CCc4c([nH]c5ccc(OC)cc45)C(COC(=O)c4ccc(OC)c(OC)c4)(C2)C13,T/C,"dose: 0.5 mg/kg/injection, schedule: Q01DX009 (ip), vehicle: Klucel (hydroxypropylcellulose) (HPC)",102 % of control
same,T/C,"dose: 1.0 mg/kg/injection, schedule: Q01DX009 (ip), vehicle: Klucel (hydroxypropylcellulose) (HPC)",104 % of control
same,T/C,"dose: 2.0 mg/kg/injection, schedule: Q01DX009 (ip), vehicle: Klucel (hydroxypropylcellulose) (HPC)",108 % of control
same,T/C,"dose: 4.0 mg/kg/injection, schedule: Q01DX009 (ip), vehicle: Klucel (hydroxypropylcellulose) (HPC)",102 % of control
Cc1c(O)c(=O)ccn1CCCl,T/C,"dose: 50.0 mg/kg/injection, schedule: Q01DX005 (ip), vehicle: saline",104 % of control and 107 % of control
same,T/C,"dose: 100.0 mg/kg/injection, schedule: Q01DX005 (ip), vehicle: saline",106 % of control and 107 % of control
same,T/C,"dose: 200.0 mg/kg/injection, schedule: Q01DX005 (ip), vehicle: saline",109 % of control and 116 % of control
O=c1oc2c(Br)cccc2cc1-c1ccc(Br)c2ccccc12,T/C,[4],101 % of control
same,T/C,[5],97 % of control
same,T/C,[9],93 % of control
CCOP(=S)(N/N=C(\C)c1ccncc1)OCC,T/C,[12],112 % of control
same,T/C,[13],107 % of control
same,T/C,[14],115 % of control
CC(=O)C(C(C)=O)C(C(C)=O)C(C)=O.[Cu],T/C,"dose: 1.5 mg/kg/injection, schedule: Q01DX005 (ip), vehicle: saline with Tween-80",110 % of control
same,T/C,"dose: 3.0 mg/kg/injection, schedule: Q01DX005 (ip), vehicle: saline with Tween-80",107 % of control
same,T/C,"dose: 6.0 mg/kg/injection, schedule: Q01DX005 (ip), vehicle: saline with Tween-80",99 % of control
same,T/C,"dose: 6.25 mg/kg/injection, schedule: Q01DX005 (ip), vehicle: saline with Tween-80",104 % of control
CC1(C)CCCC2=C1C(=O)N(SC(Cl)(Cl)Cl)C2=O,T/C,"dose: 12.5 mg/kg/injection, schedule: Q01DX005 (ip), vehicle: Klucel (hydroxypropylcellulose) (HPC)",102 % of control
same,T/C,"dose: 25.0 mg/kg/injection, schedule: Q01DX005 (ip), vehicle: Klucel (hydroxypropylcellulose) (HPC)",121 % of control
same,T/C,[12],121 % of control and 123 % of control
same,T/C,[13],122 % of control
CCOC(=O)/C(=N\N=P(N(C)C)(N(C)C)N(C)C)[As](C)C,T/C,[10],103 % of control
same,T/C,[11],99 % of control
COC1C(CO)OC(n2c3c(Cl)cccc3c3c4c(c5c6cccc(Cl)c6[nH]c5c32)C(=O)NC4=O)C(O)C1O (configuration not stated),T/C,"dose: 25.0 mg/kg/injection, schedule: Q01DX005 (ip), vehicle: saline with Tween-80",155 % of control
same,T/C,"dose: 50.0 mg/kg/injection, schedule: Q01DX005 (ip), vehicle: distilled water + Tween-80",152 % of control
same,T/C,"dose: 50.0 mg/kg/injection, schedule: Q01DX005 (ip), vehicle: saline with Tween-80",155 % of control
same,T/C,"dose: 100.0 mg/kg/injection, schedule: Q01DX005 (ip), vehicle: distilled water + Tween-80",158 % of control
same,T/C,"dose: 100.0 mg/kg/injection, schedule: Q01DX005 (ip), vehicle: saline with Tween-80",155 % of control
same,T/C,"dose: 200.0 mg/kg/injection, schedule: Q01DX005 (ip), vehicle: distilled water + Tween-80",152 % of control
same,T/C,"dose: 200.0 mg/kg/injection, schedule: Q01DX005 (ip), vehicle: saline with Tween-80",159 % of control
same,T/C,"dose: 400.0 mg/kg/injection, schedule: Q01DX005 (ip), vehicle: saline with Tween-80",182 % of control
ICC1(CI)COC1,T/C,[5],105 % of control
same,T/C,[9],104 % of control
same,T/C,"dose: 400.0 mg/kg/injection, schedule: Q01DX009 (ip), vehicle: Klucel (hydroxypropylcellulose) (HPC)",99 % of control
COc1ccc2c(c1)[C@H]1[C@H]([C@H]3O[C@@H]1c1ccccc13)S(=O)N2 (some centres not stated),T/C,[12],95 % of control
same,T/C,[13],96 % of control
same,T/C,[14],92 % of control
C=CCn1c(SC)nc2c(c1=O)CCCC2,T/C,[6],108 % of control
same,T/C,[7],97 % of control
CC(=O)N=c1nc(N)nc2n(O)cc(-c3ccccc3)nc1-2,T/C,"dose: 31.25 mg/kg/injection, schedule: Q01DX009 (ip), vehicle: saline with Tween-80",113 % of control
same,T/C,"dose: 62.5 mg/kg/injection, schedule: Q01DX009 (ip), vehicle: saline with Tween-80",99 % of control
same,T/C,"dose: 125.0 mg/kg/injection, schedule: Q01DX009 (ip), vehicle: saline with Tween-80",97 % of control
CC(CCOCCCBr)OC(=O)CCOCCC(=O)OC(C)CCOCCCBr (configuration not stated),T/C,[12],100 % of control
same,T/C,[13],98 % of control
same,T/C,[14],100 % of control
Cn1c(-c2ccc(/C=N/N=C(\N)N/N=C/c3ccc(-c4c[n+]5ccsc5n4C)cc3)cc2)c[n+]2ccsc12,T/C,"dose: 0.13 mg/kg/injection, schedule: Q01DX005 (ip), vehicle: saline",108 % of control
same,T/C,"dose: 0.25 mg/kg/injection, schedule: Q01DX005 (ip), vehicle: saline",121 % of control
